Results: the supplement of paper PMC11451515

Experiments:
Settings in all cases: 48 h
NOMO1 [1] = test: cell viability relative to DMSO control; higher = less cytotoxic
How it was run: (§1)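 NOMO1 or SEM (500 cells/well) or P12-Ichikawa (1000 cells/well) leukemia cells were adapted for at least four passages in each medium. They were seeded in 1536-well plates (5 μl) and pin-dosed with library compounds in DMSO over an 11-point threefold series, 47 μM to 0.79 nM. CellTiter-Glo One luminescence was read after 48 h at 37°C. Viability is the per-plate percentage relative to DMSO wells, with cell-free wells as background.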

P12-Ichikawa [2] = test: as above
How it was run: as §1

SEM cells [3] = test: as above
How it was run: as §1

NOMO1 [4] = test: AUC of viability dose-response curve (% viability x log10 dose units); higher = less sensitive
How it was run: (§2)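 Leukemia cells adapted to each medium were seeded in 1536-well plates (500 or 1000 cells/well). They were dosed with library compounds in DMSO at 11 threefold doses, 47 μM to 0.79 nM, for 48 h at 37°C. CellTiter-Glo One luminescence was normalised per plate to DMSO and cell-free wells. Area under the curve was integrated by trapezoidal rule over log10 doses on a four-parameter log-logistic fit; curves exceeding full viability were scaled and curves failing quality control removed.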

P12-Ichikawa [5] = test: as above
How it was run: as §2

SEM cells [6] = test: as above
How it was run: as §2

CN(C)[C@H]\1[C@@H]2[C@@H](O)[C@H]3\C(=C(O)/[C@]2(O)C(=O)\C(=C1O)C(N)=O)C(=O)C4=C(C=CC=C4O)[C@@]3(C)O
cell viability [%]
Settings	NOMO1 [1]	P12-Ichikawa [2]	SEM cells [3]
HPLM + 10% dialyzed FBS, 0.000781 µM	134	–	100
HPLM + 10% dialyzed FBS, 0.00234 µM	117	–	95.3
HPLM + 10% dialyzed FBS, 0.00702 µM	117	–	99.4
HPLM + 10% dialyzed FBS, 0.0211 µM	138	–	98.8
HPLM + 10% dialyzed FBS, 0.0632 µM	127	–	98.9
HPLM + 10% dialyzed FBS, 0.19 µM	131	–	106
HPLM + 10% dialyzed FBS, 0.569 µM	130	–	105
HPLM + 10% dialyzed FBS, 1.71 µM	108	–	103
HPLM + 10% dialyzed FBS, 5.12 µM	113	–	117
HPLM + 10% dialyzed FBS, 15.4 µM	104	–	106
HPLM + 10% dialyzed FBS, 46.1 µM	30.7	–	95.7
RPMI 5 mM glucose + 10% FBS, 0.000781 µM	112	130	102
RPMI 5 mM glucose + 10% FBS, 0.00234 µM	131	123	123
RPMI 5 mM glucose + 10% FBS, 0.00702 µM	120	125	121
RPMI 5 mM glucose + 10% FBS, 0.0211 µM	135	127	125
RPMI 5 mM glucose + 10% FBS, 0.0632 µM	123	127	115
RPMI 5 mM glucose + 10% FBS, 0.19 µM	126	131	114
RPMI 5 mM glucose + 10% FBS, 0.569 µM	122	130	129
RPMI 5 mM glucose + 10% FBS, 1.71 µM	117	106	121
RPMI 5 mM glucose + 10% FBS, 5.12 µM	113	96.1	104
RPMI 5 mM glucose + 10% FBS, 15.4 µM	119	128	133
RPMI 5 mM glucose + 10% FBS, 46.1 µM	37.1	116	118
RPMI 5 mM glucose + 10% dialyzed FBS, 0.000781 µM	117	–	113
RPMI 5 mM glucose + 10% dialyzed FBS, 0.00234 µM	128	–	121
RPMI 5 mM glucose + 10% dialyzed FBS, 0.00702 µM	117	–	121
RPMI 5 mM glucose + 10% dialyzed FBS, 0.0211 µM	122	–	118
RPMI 5 mM glucose + 10% dialyzed FBS, 0.0632 µM	119	–	125
RPMI 5 mM glucose + 10% dialyzed FBS, 0.19 µM	128	–	124
RPMI 5 mM glucose + 10% dialyzed FBS, 0.569 µM	123	–	115
RPMI 5 mM glucose + 10% dialyzed FBS, 1.71 µM	136	–	114
RPMI 5 mM glucose + 10% dialyzed FBS, 5.12 µM	105	–	122
RPMI 5 mM glucose + 10% dialyzed FBS, 15.4 µM	104	–	118
RPMI 5 mM glucose + 10% dialyzed FBS, 46.1 µM	30.1	–	118

AUC of viability dose-response curve
Settings	NOMO1 [4]	P12-Ichikawa [5]	SEM cells [6]
HPLM + 10% dialyzed FBS	448	454	459
RPMI 5 mM glucose + 10% FBS	459	456	463
RPMI 5 mM glucose + 10% dialyzed FBS	449	421	476

Cc1nc(C(=O)NCC(=O)O)c(O)c2ccc(Oc3ccccc3)cc12
cell viability [%]
Settings	NOMO1 [1]	P12-Ichikawa [2]	SEM cells [3]
HPLM + 10% dialyzed FBS, 0.000781 µM	106	111	109
HPLM + 10% dialyzed FBS, 0.00234 µM	113	97.3	109
HPLM + 10% dialyzed FBS, 0.00702 µM	113	107	115
HPLM + 10% dialyzed FBS, 0.0211 µM	119	105	112
HPLM + 10% dialyzed FBS, 0.0632 µM	113	113	116
HPLM + 10% dialyzed FBS, 0.19 µM	116	91.4	108
HPLM + 10% dialyzed FBS, 0.569 µM	104	98.4	99.5
HPLM + 10% dialyzed FBS, 1.71 µM	101	99.5	115
HPLM + 10% dialyzed FBS, 5.12 µM	118	94.8	92.8
HPLM + 10% dialyzed FBS, 15.4 µM	97.4	102	102
HPLM + 10% dialyzed FBS, 46.1 µM	107	98.7	112
RPMI 5 mM glucose + 10% FBS, 0.000781 µM	99.4	107	101
RPMI 5 mM glucose + 10% FBS, 0.00234 µM	105	111	108
RPMI 5 mM glucose + 10% FBS, 0.00702 µM	95.7	115	112
RPMI 5 mM glucose + 10% FBS, 0.0211 µM	87.2	105	115
RPMI 5 mM glucose + 10% FBS, 0.0632 µM	94.5	110	103
RPMI 5 mM glucose + 10% FBS, 0.19 µM	104	102	99.4
RPMI 5 mM glucose + 10% FBS, 0.569 µM	86.6	110	95.7
RPMI 5 mM glucose + 10% FBS, 1.71 µM	94.9	101	94.8
RPMI 5 mM glucose + 10% FBS, 5.12 µM	84.5	103	104
RPMI 5 mM glucose + 10% FBS, 15.4 µM	102	99.2	108
RPMI 5 mM glucose + 10% FBS, 46.1 µM	92.5	85.5	99.2
RPMI 5 mM glucose + 10% dialyzed FBS, 0.000781 µM	84.4	99.4	113
RPMI 5 mM glucose + 10% dialyzed FBS, 0.00234 µM	85.3	101	112
RPMI 5 mM glucose + 10% dialyzed FBS, 0.00702 µM	108	102	123
RPMI 5 mM glucose + 10% dialyzed FBS, 0.0211 µM	105	104	116
RPMI 5 mM glucose + 10% dialyzed FBS, 0.0632 µM	116	101	119
RPMI 5 mM glucose + 10% dialyzed FBS, 0.19 µM	98.2	98.8	112
RPMI 5 mM glucose + 10% dialyzed FBS, 0.569 µM	96.2	101	113
RPMI 5 mM glucose + 10% dialyzed FBS, 1.71 µM	94.9	94.8	113
RPMI 5 mM glucose + 10% dialyzed FBS, 5.12 µM	82.2	96.9	103
RPMI 5 mM glucose + 10% dialyzed FBS, 15.4 µM	104	93.6	115
RPMI 5 mM glucose + 10% dialyzed FBS, 46.1 µM	99.4	77	122

AUC of viability dose-response curve
Settings	NOMO1 [4]	P12-Ichikawa [5]	SEM cells [6]
HPLM + 10% dialyzed FBS	462	454	459
RPMI 5 mM glucose + 10% FBS	442	455	454
RPMI 5 mM glucose + 10% dialyzed FBS	466	466	470

CC1(C)CCC(=C(\C1)C2=CC=C(Cl)C=C2)/CN3CCN(CC3)C4=CC(=C(C=C4)C(=O)N[S+]([O-])(=O)C5=CC=C(NCC6CCOCC6)C(=C5)[N+]([O-])=O)OC7=CN=C8[NH]C=CC8=C7
cell viability [%]
Settings	NOMO1 [1]	P12-Ichikawa [2]	SEM cells [3]
HPLM + 10% dialyzed FBS, 0.000781 µM	103	98.6	104
HPLM + 10% dialyzed FBS, 0.00234 µM	110	108	95.1
HPLM + 10% dialyzed FBS, 0.00702 µM	95.8	104	99.3
HPLM + 10% dialyzed FBS, 0.0211 µM	91.9	102	62.7
HPLM + 10% dialyzed FBS, 0.0632 µM	113	98	43.7
HPLM + 10% dialyzed FBS, 0.19 µM	71.8	98.3	12.6
HPLM + 10% dialyzed FBS, 0.569 µM	63.2	98.5	8.25
HPLM + 10% dialyzed FBS, 1.71 µM	55.3	97.5	7.7
HPLM + 10% dialyzed FBS, 5.12 µM	55.1	83.9	7.49
HPLM + 10% dialyzed FBS, 15.4 µM	45.8	67	7.18
HPLM + 10% dialyzed FBS, 46.1 µM	39	49	5.72
RPMI 5 mM glucose + 10% FBS, 0.000781 µM	93.7	103	124
RPMI 5 mM glucose + 10% FBS, 0.00234 µM	84.4	106	105
RPMI 5 mM glucose + 10% FBS, 0.00702 µM	99.3	114	123
RPMI 5 mM glucose + 10% FBS, 0.0211 µM	89.4	104	76.2
RPMI 5 mM glucose + 10% FBS, 0.0632 µM	85.4	104	70
RPMI 5 mM glucose + 10% FBS, 0.19 µM	76.2	100	20.3
RPMI 5 mM glucose + 10% FBS, 0.569 µM	61.3	99.2	11.1
RPMI 5 mM glucose + 10% FBS, 1.71 µM	62.7	89.6	7.11
RPMI 5 mM glucose + 10% FBS, 5.12 µM	63.2	96.5	6.79
RPMI 5 mM glucose + 10% FBS, 15.4 µM	43	81.5	5.86
RPMI 5 mM glucose + 10% FBS, 46.1 µM	33.6	68.1	4.71
RPMI 5 mM glucose + 10% dialyzed FBS, 0.000781 µM	97	100	102
RPMI 5 mM glucose + 10% dialyzed FBS, 0.00234 µM	95	103	90.8
RPMI 5 mM glucose + 10% dialyzed FBS, 0.00702 µM	96.2	101	88.3
RPMI 5 mM glucose + 10% dialyzed FBS, 0.0211 µM	76.7	105	53.8
RPMI 5 mM glucose + 10% dialyzed FBS, 0.0632 µM	66.4	96.3	38
RPMI 5 mM glucose + 10% dialyzed FBS, 0.19 µM	57.7	103	16.5
RPMI 5 mM glucose + 10% dialyzed FBS, 0.569 µM	49	99	8.07
RPMI 5 mM glucose + 10% dialyzed FBS, 1.71 µM	38.2	90.8	6.59
RPMI 5 mM glucose + 10% dialyzed FBS, 5.12 µM	42.9	96.1	6.67
RPMI 5 mM glucose + 10% dialyzed FBS, 15.4 µM	28	78.1	5.3
RPMI 5 mM glucose + 10% dialyzed FBS, 46.1 µM	23.9	65.7	4.75

AUC of viability dose-response curve
Settings	NOMO1 [4]	P12-Ichikawa [5]	SEM cells [6]
HPLM + 10% dialyzed FBS	355	436	186
RPMI 5 mM glucose + 10% FBS	347	436	198
RPMI 5 mM glucose + 10% dialyzed FBS	290	449	175
